Where two headings read alike, the source gives them in different places. Non-standard residues stand in square brackets, D forms with d. Residues, ends and D or L forms follow the SMILES beside them. Groups on a side chain read outwards from the residue. *: point of attachment. Biotin = O=C1N[C@H]2[C@H](CS[C@H]2CCCCC(=O)*)N1; Ahx = NCCCCCC(=O)O
What was measured:
HIV-1 strain LAV-Vbu3 [1] = experiment: microbe, parasite or virus in culture; conditions: Human immunodeficiency virus 1, MT2, 120 h, read-out: EC50 (anti-HIV activity)
HIV-1 strain LAV-Vbu3 [2] = system: HIV-1 strain LAV-Vbu3
in vitro = conditions: human
[3] = set-up: method as in PMID 15546199; conditions: PBS pH 7.4, 37°C; cited from earlier work
[4] = set-up: method as in PMID 15546199; conditions: spiked plasma, 37°C; cited from earlier work

Structure (SMILES)	Therapeutic Index (LC50/EC50) (HIV-1 strain LAV-Vbu3 [2]; strain LAV-Vbu3)	CC50 (in vitro) [µM]	anti-HIV potency relative to L-Tat9 (times more potent) (HIV-1 strain LAV-Vbu3 [2]; MT-2 cells infected with HIV-1) [fold]	EC50 (HIV-1 strain LAV-Vbu3 [2]; strain LAV-Vbu3) [µM]	also measured
CC(C)(C)NC(=O)[C@@H]1C[C@@H]2CCCC[C@@H]2CN1C[C@@H](O)[C@H](Cc1ccccc1)NC(=O)[C@H](CC(N)=O)NC(=O)c1ccc2ccccc2n1 [SQV(MeSO3H) (control), saquinavir, reference compound]	–	–	–	–	EC50 (HIV-1 strain LAV-Vbu3 [1]): 0.015 µM; Therapeutic Index (LC50/EC50) (HIV-1 strain LAV-Vbu3 [2]; MT-2 cells, LC50 in uninfected cells / EC50 in infected cells): 1667; CC50 at 5 days (in vitro): 25 µM
CC(=O)N[C@@H](CCCNC(=N)N)C(=O)N[C@@H](CCCCN)C(=O)N[C@@H](CCCCN)C(=O)N[C@@H](CCCNC(=N)N)C(=O)N[C@@H](CCCNC(=N)N)C(=O)N[C@@H](CCC(N)=O)C(=O)N[C@@H](CCCNC(=N)N)C(=O)N[C@@H](CCCNC(=N)N)C(=O)N[C@@H](CCCNC(=N)N)C(N)=O [L-Tat9, reference compound]	1	53.8	–	–	Therapeutic Index (LC50/EC50) (HIV-1 strain LAV-Vbu3 [2]; listed as L-form of Tat9): poorest therapeutic index; EC50 (HIV-1 strain LAV-Vbu3 [2]; read-out: EC50 (anti-HIV activity), MT-2 cells infected with HIV-1 strain LAV-Vbu3, MOI 0.01, MTT, 5 days): 51.3 µM
CC(C)(C)NC(=O)[C@@H]1C[C@@H]2CCCC[C@@H]2CN1C[C@@H](OC(=O)C(N)CS)[C@H](Cc1ccccc1)NC(=O)[C@H](CC(N)=O)NC(=O)c1ccc2ccccc2c1 (stereo partly shown) [SQV-Cys ester]	–	–	–	–	half-life of release of active SQV (ester bond) [3]: 14 h; half-life of release of active SQV (ester bond) [4]: 0.9 h
CC(=O)N[C@H](CS)C(=O)N[C@H](CCCCN)C(=O)N[C@H](CCCNC(=N)N)C(=O)N[C@H](CCCNC(=N)N)C(=O)N[C@H](CCCNC(=N)N)C(=O)N[C@H](CCC(N)=O)C(=O)N[C@H](CCCNC(=N)N)C(=O)N[C@H](CCCNC(=N)N)C(=O)N[C@H](CCCCN)C(=O)N[C@H](CCCCN)C(=O)N[C@H](CCCNC(=N)N)C(N)=O [R.I.CK-Tat9, N-acetyl-ckrrrqrrkkr-NH2] (Ac-[dC][dK][dR][dR][dR][dQ][dR][dR][dK][dK][dR]-NH2)	35	29.8	60	0.85	–
CC(=O)N[C@H](CS)C(=O)N[C@H](CCCCNC(=O)CCCCCNC(=O)CCCC[C@@H]1SC[C@@H]2NC(=O)N[C@@H]21)C(=O)N[C@H](CCCNC(=N)N)C(=O)N[C@H](CCCNC(=N)N)C(=O)N[C@H](CCCNC(=N)N)C(=O)N[C@H](CCC(N)=O)C(=O)N[C@H](CCCNC(=N)N)C(=O)N[C@H](CCCNC(=N)N)C(=O)N[C@H](CCCCN)C(=O)N[C@H](CCCCN)C(=O)N[C@H](CCCNC(=N)N)C(N)=O [R.I.CK(biotin)-Tat9] (Ac-[dC][dK]([Ahx-Biotin])[dR][dR][dR][dQ][dR][dR][dK][dK][dR]-NH2)	2600	46.8	2850	0.018	anti-HIV potency relative to RI-Tat9 (times more potent) (HIV-1 strain LAV-Vbu3 [2]; MT-2 cells infected with HIV-1): 47 fold; R (ratio of the EC50 of the bioconjugate to that of its parent drug R.I.CK-Tat9 or SQV) (HIV-1 strain LAV-Vbu3 [2]; MT-2 cells, HIV-1 LAV-Vbu3, MOI 0.01): 0.02
